Experimental findings from patent US20220395496A1 (Hoffmann-La Roche Inc., priority 2019, published 2022) are described below.

This test addresses T1, human TLR8 (Homo sapiens, UniProt Q9NR97).
T1 sequence (Q9NR97 27-1041): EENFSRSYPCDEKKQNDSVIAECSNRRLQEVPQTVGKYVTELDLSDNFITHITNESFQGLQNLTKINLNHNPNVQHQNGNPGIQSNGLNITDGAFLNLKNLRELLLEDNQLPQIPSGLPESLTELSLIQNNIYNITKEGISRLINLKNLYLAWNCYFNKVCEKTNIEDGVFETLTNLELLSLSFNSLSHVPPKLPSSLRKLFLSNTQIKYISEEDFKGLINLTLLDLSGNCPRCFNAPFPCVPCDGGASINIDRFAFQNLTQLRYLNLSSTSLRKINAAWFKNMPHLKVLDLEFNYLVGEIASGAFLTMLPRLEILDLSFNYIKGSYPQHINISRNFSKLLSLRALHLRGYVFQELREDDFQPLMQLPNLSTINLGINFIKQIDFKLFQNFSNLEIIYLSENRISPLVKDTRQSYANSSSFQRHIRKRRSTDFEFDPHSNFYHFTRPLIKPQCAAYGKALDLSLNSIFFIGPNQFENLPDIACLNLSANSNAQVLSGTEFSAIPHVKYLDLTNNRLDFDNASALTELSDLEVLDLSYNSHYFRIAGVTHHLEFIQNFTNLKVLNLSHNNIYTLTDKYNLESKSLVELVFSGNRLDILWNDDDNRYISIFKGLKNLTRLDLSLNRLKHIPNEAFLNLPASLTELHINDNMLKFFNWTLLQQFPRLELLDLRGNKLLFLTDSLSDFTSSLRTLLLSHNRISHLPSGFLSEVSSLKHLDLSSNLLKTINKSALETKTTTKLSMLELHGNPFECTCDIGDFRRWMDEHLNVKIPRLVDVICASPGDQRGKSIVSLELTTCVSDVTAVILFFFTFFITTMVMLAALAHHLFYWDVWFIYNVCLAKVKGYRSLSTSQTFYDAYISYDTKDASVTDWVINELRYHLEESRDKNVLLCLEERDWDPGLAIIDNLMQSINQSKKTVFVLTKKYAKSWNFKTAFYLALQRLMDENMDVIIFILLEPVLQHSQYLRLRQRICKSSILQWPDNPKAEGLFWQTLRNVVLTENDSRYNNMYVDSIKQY
Nature of the test: HEK293-Blue-hTLR-8 cells assay (SEAP reporter, R848 stimulation). The test is classed as cell-based. The settings on record: HEK293-Blue-hTLR8 cells, R848, 20 hrs; lowest tested concentration 0.0032. On the procedure: The following tests were carried out in order to determine the activity of the compounds of this invention in HEK293-Blue-hTLR-7/8/9 cells assay.
HEK293-Blue-hTLR-8 Cells Assay:
A stable HEK293-Blue-hTLR-8 cell line was purchased from InvivoGen (Cat. #: hkb-htlr8, San Diego, Calif., USA). These cells were originally designed for studying the stimulation of human TLR8 by monitoring the activation of NF-κB. A SEAP (secreted embryonic alkaline phosphatase) reporter gene was placed under the control of the IFN-β minimal promoter fused to five NF-κB and AP-1-binding sites. The SEAP was induced by activating NF-κB and AP-1 via stimulating HEK-Blue hTLR8 cells with TLR8 ligands. Therefore the reporter expression was declined by TLR8 antagonist under the stimulation of a ligand, such as R848, for incubation of 20 hrs. The cell culture supernatant SEAP reporter activity was determined using QUANTI-Blue™kit (Cat. #: rep-qb1, Invivogen, San Diego, Calif., USA) at a wavelength of 640 nm, a detection medium that turns purple or blue in the presence of alkaline phosphatase.
HEK293-Blue-hTLR8 cells were incubated at a density of […] cells/mL in a volume of 170 μL in a 96-well plate in Dulbecco's Modified Eagle's medium (DMEM) containing 4.5 g/L glucose, 50 U/mL penicillin, […], […], 2 mM L-glutamine, 10% (v/v) heat-inactivated fetal bovine serum with addition of 20 μL test compound in a serial dilution in the presence of final DMSO at 1% and 10 μL of 60 uM R848 in above DMEM, perform incubation under 37° C. in a CO2 incubator for 20 hrs. Then 20 μL of the supernatant from each well was incubated with 180 μL Quanti-blue substrate solution at 37° C. for 2 hrs and the absorbance was read at 620˜655 nm using a spectrophotometer. The signalling pathway that TLR8 activation leads to downstream NF-κB activation has been widely accepted, and therefore similar reporter assay was modified for evaluating TLR8 antagonist.
The term IC50 denotes the concentration at which inhibition is half-maximal. For `C[C@H]1C[C@@H](NCc2cnc(N3CCN(C)CC3)nc2)CN(c2ccc(C#N)c3ncccc23)C1` [Example 16, 5-[(3S,5R)-3-methyl-5-[[2-(4-methylpiperazin-1-yl)pyrimidin-5-yl]methylamino]-1-piperidyl]quinoline-8-carbonitrile], the IC50 was below 3.2 nM. To `C[C@H]1C[C@@H](NCc2ccccc2)CN(c2ccc(C#N)c3ncccc23)C1` [Example R1, reference compound] belongs 20 nM. To `C[C@H]1C[C@@H](NCc2ccc(N3CCNCC3)cc2F)CN(c2ccc(C#N)c3ncccc23)C1` [Example 4, 5-[(3R,58)-3-[(2-fluoro-4-piperazin-1-yl-phenyl)methylamino]-5-methyl-1-piperidyl]quinoline-8-carbonitrile] belongs below 3.2 nM; to `C[C@H]1C[C@@H](NCc2ccc(N3CCNCC3)cc2)CN(c2ccc(C#N)c3ncccc23)C1` [Example 1, 5-[(3S,5R)-3-methyl-5-[(4-piperazin-1-ylphenyl)methylamino]1-piperidyl]quinoline-8-carbonitrile], below 3.2 nM. `C[C@H]1C[C@@H](N2Cc3cc(N4CCNCC4)cnc3C2)CN(c2ccc(C#N)c3ncccc23)C1` [Example 23, 5-[(3S,5R)-3-methyl-5-(3-piperazin-1-yl-5,7-dihydropyrrolo[3,4-b]pyridin-6-yl)-1-piperidyl]quinoline-8-carbonitrile] came in with a concentration for half-maximal inhibition (IC50) of 4 nM.
